Patent publication US12521439B2, “Methods and materials for modulating Nrf2 pathway” (The General Hospital Corporation, priority 2019, dated 2026)

How the values were obtained:
[1] = tested on: ARE (Nrf2 pathway); assay: ARE-Gluc luciferase reporter (normalized to SV40-Vluc); type: cell-based, human
Excerpt: DNA expression constructs: ARE reporter was designed and generated based on our previously published reporter for monitoring of the transcription factor Nuclear Factor Kappa B (NFkB). NFkB TRE elements were removed and replaced with four copies of the ARE enhancer sequence. This reporter consists of a CSCW lentivirus vector in which we have introduced two copies of the 1.2 kb chicken beta-globin (HS4) insulator elements, a TATA box acting as a minimal promoter upstream of the secreted Gaussia luciferase (Gluc). pcDNA3-HA2-Keap1 (Addgene plasmid #21556) and pcDNA3-HA2-Keap1 delta BTB (Addgene plasmid #21593) were a gift from Yue Xiong^2. pHAGE DN Cullin 3 (DN-CUL3) was a gift from Stephen Elledge (Addgene plasmid #41913). Constructs expressing constitutively active Gluc, Firefly luciferase (Fluc) and Vargula luciferase (Vluc) were previously describe. MISSION shRNA Bacterial Glycerol Stocks for Keap1 as well as a non-target shRNA were obtained from Sigma. Transfection of plasmid DNA was performed using Lipofectamine 2000 (Invitrogen) as per manufacturer's guidelines. Lentivirus packaging and titration was performed in 293T cells by the MGH viral vector core facility following standard protocols. Keap1 mutant C151S plasmid was kindly provided by Dr. Wooyoung Hur.
Luciferase assay: Coelenterazine (20 μM; Nanolight), The Gluc substrate was added to a 25 μL aliquot of conditioned medium and photon counts were measured using a luminometer. Similarly, the secreted Vluc activity was measured by adding its substrate vargulin (5 ng/mL; Nanolight). Cells stably expressing Gluc under the ARE enhancer sequence and Vluc under the constitutively active SV40 minimal promoter were used to determine the ARE reporter activity. The normalized Gluc/Vluc ratio was used as a marker for ARE activation.

[2] = tested on: HO1 transcripts in MDA-MB-231 tumors; assay: HO1 mRNA in fat pad breast tumors in vivo; parameters: species or system mice; details: 7.5 mg/kg i.p. for four consecutive days
Method: Real-time qRT-PCR: Total RNA isolation from cultured cells was performed using RNeasy kit (Qiagen), followed by reverse transcription with OneScript cDNA synthesis Kit (ABM). mRNA expression of different genes was then analyzed by quantitative PCR using PowerUp SYBR Green Master Mix (Applied Biosystems) and performed using a QuantStudio3 real-time PCR system (Applied Biosystems). Primer sequences for HO1, NQO1, TXNRD2 were obtained from the MGH primer bank and were as follows: HO1 Forward, 5′-[…]-3′ and reverse 5′-[…]-3′; NQO1 Forward 5′-[…]-3′ and reverse 5′-[…]-3′ and Txnrd2 forward 5′-[…]-3 and reverse 5′-[…]. Oligonucleotides were synthesized by the CCIB DNA Core Facility at Massachusetts General Hospital. Expression of human GAPDH was used to mRNA normalization and relative mRNA expression was calculated using the comparative Ct method.
In vivo Tumor Models: Animal experiments performed by our laboratory were approved by the Massachusetts General Hospital Subcommittee on Research Animal Care. Female athymic nude mice (6-8 weeks) were used in all studies with the exception of pharmacokinetics analysis. For brain tumors xenograft model, GBM8 cells (1×10^5 cells/mouse) stably expressing Fluc were stereotactically implanted into the left striatum of animals. […] Tumor volumes were measured using a caliper and calculated according to the following formula: volume=(width)^2×length/2. […]

[3] = target: Keap1 (Homo sapiens, UniProt Q14145); assay: Keap1 immunoblotting / immunoprecipitation; type: cell-based; parameters: Keap1 protein levels in U87 cells treated with the indicated doses of OBT for 8 hours; endogenous in cells; host or cells: U87, MDA-MB-231 (endogenous); 293T and MDA-MB-231 also transfected with HA-Keap1
Chain of Keap1 (Q14145 whole entry): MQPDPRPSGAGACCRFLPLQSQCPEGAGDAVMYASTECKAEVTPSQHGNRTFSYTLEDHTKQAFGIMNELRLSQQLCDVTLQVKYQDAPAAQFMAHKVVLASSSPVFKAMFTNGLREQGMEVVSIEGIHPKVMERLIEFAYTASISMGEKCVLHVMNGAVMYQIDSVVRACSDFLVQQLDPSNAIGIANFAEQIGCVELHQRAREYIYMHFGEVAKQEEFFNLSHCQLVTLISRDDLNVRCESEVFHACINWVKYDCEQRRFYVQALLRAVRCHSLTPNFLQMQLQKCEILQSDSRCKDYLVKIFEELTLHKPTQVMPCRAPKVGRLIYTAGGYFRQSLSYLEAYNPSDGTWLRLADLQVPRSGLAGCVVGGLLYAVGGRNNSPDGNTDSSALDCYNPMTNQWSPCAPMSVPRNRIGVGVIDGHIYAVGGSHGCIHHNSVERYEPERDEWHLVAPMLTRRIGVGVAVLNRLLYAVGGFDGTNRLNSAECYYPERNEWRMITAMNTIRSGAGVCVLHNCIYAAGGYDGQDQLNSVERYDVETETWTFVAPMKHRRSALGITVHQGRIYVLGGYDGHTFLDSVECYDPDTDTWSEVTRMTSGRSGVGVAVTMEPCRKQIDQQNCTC
Method: Immunoblotting and Immunoprecipitation analysis: Antibodies against PDI, GAPDH, HA-tag, Ubiquitin, Keap1 and beta-actin (Cell Signaling) as well as secondary Horseradish peroxidase (HRP) conjugated antibodies: sheep anti-mouse IgG-HRP and donkey antirabbit IgG-HRP (Amersham Pharmacia Biotech) were used in this study. For protein expression analysis, cells were lysed in RIPA buffer (150 mM NaCl, 50 mM TRIS, pH 8.0, 1% NP-40, 0.5% deoxycholate, 0.1% SDS) supplemented with 1× protease inhibitors cocktail (Roche). Proteins were quantified using a Bradford protein determination assay (Bio-Rad) followed by electrophoresis in 10% NuPAGE Bis-Tris gels (Life Technologies) and transfer to nitrocellulose membranes (Bio-Rad). Membranes were incubated overnight with antibodies in 1-5% non-fat milk powder in PBS/0.5% TWEEN. Proteins were detected with SuperSignal West Pico Chemiluminescent Substrate (Pierce). For immunoprecipitation assays, cells were lysed in RIPA buffer supplemented with protease inhibitors and 2 mM N-ethylmaleimide. Cell lysates were pre-cleared with protein A agarose beads (Cell Signaling) and incubated with anti-HA antibody with gentle rocking overnight at 4° C. followed by incubation with protein A agarose beads and subsequent washing and elution steps. Electrophoresis, transfer and immunoblot analysis was performed as described above.

`COC1=CC(=O)C(O)=C/C1=C/C=C/c1ccccc1` [OBT, (Z)-2-hydroxy-5-methoxy-4-((E)-3-phenylallylidene)cyclohexa-2,5-dien-1-one] was tested, and the “OBT-induced ARE activation and loss of cell viability with thiol antioxidants” value ([1]; addition of NAC, DTT, GSH, U87) was “completely reversed”, the “OBT-induced ARE activation and loss of cell viability with Trolox” value ([1]; addition of Trolox, U87) was “only partially” and the “ARE luciferase reporter activity” value ([1]; sub-toxic doses, higher than positive control tBHQ, U87 and MDA-MB-231) was “strongly activated”. For the same compound, the “upregulation of HO1 transcripts in the tumor” value [2] was 7 fold, the “ubiquitination of Keap1” value ([3]; 293T, OBT 2 μM, 6 hours, IP anti-HA) was “resulted in ubiquitination of Keap1” and the “OBT-mediated degradation of Keap1 with CUL3 downregulation or proteasome inhibitor” value ([3]; MDA-MB-231, OBT 3 μM, 6 hours) was “prevented”. The “time at which Keap1 restored to physiological levels” value ([3]; U87) was 24 h, the “earliest time of Keap1 decrease” value ([3]; U87, following treatment with OBT) was 4 h and the Keap1 protein levels ([3]; U87, 1 μM time course, indicated doses 8 hours) was “time- and dose-dependent decrease”.
